According to ChEMBL document CHEMBL4699579, “A Peptidyl Inhibitor that Blocks Calcineurin-NFAT Interaction and Prevents Acute Lung Injury” (J Med Chem, 2020):
Calls of active or inactive are those of the source.

Experiments:
[1] = Stability in 25% human serum assessed as compound degradation at 5 uM at 37 degC incubated for 24 hrs by HPLC analysis; assay type: ADME, cell-free; conditions: 25% human serum, read-out: Drug degradation
[2] = Drug uptake in human HeLa cells at 5 uM incubated for 2 hrs using naphthofluorescein-labelled compound by live-cell confocal microscopic analysis; assay type: ADME, cell-based
[3] = (§1) Binding affinity to GST-tagged Calcineurin (unknown origin) assessed as reduction in binding of peptide-14 incubated for 1 hr by fluorescence polarization assay; design: species or system Homo sapiens
Homo sapiens = organism: Homo sapiens; experiment: as §1
[4] = Toxicity in of C57BL/6 mouse assessed as effect on lactate dehydrogenase level in total lung cells at 5 mg/kg using TMR-labeled compound instilled into both nostrils measured after 24 hrs by Cyto-tox 96 assay; assay type: organism-based; conditions: in vivo, inhaled_or_intranasal
[5] = Toxicity in C57BL/6 mouse assessed as effect on respiratory function measured by pulmonary arterial oxygen saturation at 50 mg/kg, ip; assay type: organism-based; conditions: in vivo
[6] = Tmax in BALF of C57BL/6 mouse at 5 mg/kg using TMR-labeled compound instilled into both nostrils by flow cytometry; assay type: ADME, organism-based, Bronchoalveolar lavage; conditions: inhaled or intranasal
[7] = Toxicity in C57BL/6 mouse assessed as effect on body temperature at 50 mg/kg, ip; assay type: organism-based; conditions: in vivo
Mus musculus [8] = experiment: Anti-inflammatory activity in BALB/c mouse model of LPS-induced ALI assessed as reduction in LPS-induced extravasated BALF protein in BALF at 5 mg/kg dosed via intranasal insuffIation pre-treated 2 hrs before LPS stimulation for 16 hrs; assay type: functional, organism-based; conditions: dose mg/kg 5-10, time 18.0 hrs
Mus musculus [9] = experiment: Anti-inflammatory activity in BALB/c mouse model of LPS-induced ALI assessed as reduction in LPS-induced IL6 in plasma at 5 mg/kg dosed via intranasal insuffIation pre-treated 2 hrs before LPS stimulation for 16 hrs; assay type: functional, organism-based; conditions: dose mg/kg 5-10, time 18.0 hrs
Macrophage [10] = experiment: Inhibition of calcineurin-NFATc3 interaction in mouse bone marrow-derived macrophages assessed as reduction in LPS-induced NFATc3 nuclear translocation at 1 uM pre-incubated before LPS stimulation for 1 hr using biotinylated compound by immunofluorescence staining assay
[11] = Toxicity in C57BL/6 mouse assessed as efect on animal growth rates at 50 mg/kg, ip measured during 1 weeks; assay type: organism-based; conditions: in vivo, 168 h
Mus musculus [12] = experiment: Anti-inflammatory activity in BALB/c mouse model of LPS-induced ALI assessed as reduction in LPS-induced extravasated BALF protein in BALF at 10 mg/kg dosed via intranasal insuffIation pre-treated 2 hrs before LPS stimulation for 16 hrs; assay type: functional, organism-based; conditions: time 18.0 hrs
[13] = Toxicity in of C57BL/6 mouse assessed as induction of neutrophil infiltration at 5 mg/kg using TMR-labeled compound instilled into both nostrils measured after 24 hrs by Hema-3.0 staining based assay; assay type: organism-based; conditions: in vivo, inhaled_or_intranasal
Mus musculus [14] = experiment: Anti-inflammatory activity in BALB/c mouse model of LPS-induced ALI assessed as reduction in LPS-induced TNFalpha in plasma at 5 mg/kg dosed via intranasal insuffIation pre-treated 2 hrs before LPS stimulation for 16 hrs; assay type: functional, organism-based; conditions: dose mg/kg 5-10, time 18.0 hrs
[15] = Toxicity in C57BL/6 mouse assessed as induction of body weight loss at 50 mg/kg, ip measured during 1 weeks; assay type: organism-based; conditions: in vivo, 168 h
[16] = Toxicity in mouse lung macrophages cells assessed as reduction in cell viability up to 25 uM incubated for 72 hrs by MTT assay; assay type: tissue-based; conditions: macrophage
[17] = Toxicity in C57BL/6 mouse assessed as effect on self grooming at 50 mg/kg, ip; assay type: organism-based; conditions: in vivo
Mus musculus [18] = experiment: Anti-inflammatory activity in BALB/c mouse model of LPS-induced ALI assessed as reduction in LPS-induced TNFalpha in plasma at 10 mg/kg dosed via intranasal insuffIation pre-treated 2 hrs before LPS stimulation for 16 hrs; assay type: functional, organism-based; conditions: time 18.0 hrs
Mus musculus [19] = experiment: Anti-inflammatory activity in BALB/c mouse model of LPS-induced ALI assessed as reduction in LPS-induced TNFalpha in BALF at 5 mg/kg dosed via intranasal insuffIation pre-treated 2 hrs before LPS stimulation for 16 hrs; assay type: functional, organism-based; conditions: dose mg/kg 5-10, time 18.0 hrs
[20] = Binding affinity to GST-tagged Calcineurin (unknown origin) incubated for 1 hr by fluorescence polarization assay; design: species or system Homo sapiens
[21] = Toxicity in C57BL/6 mouse assessed as effect on animal growth rates at 10 mg/kg dosed via intranasal insuffIation measured during 1 weeks; assay type: organism-based; conditions: in vivo, inhaled_or_intranasal, 168 h
Mus musculus [22] = experiment: Anti-inflammatory activity in BALB/c mouse model of LPS-induced ALI assessed as reduction in number of neutrophils BALF at 10 mg/kg dosed via intranasal insuffIation pre-treated 2 hrs before LPS stimulation for 16 hrs; assay type: functional, organism-based; conditions: time 18.0 hrs
[23] = Toxicity in C57BL/6 mouse assessed as effect on physical appearance at 50 mg/kg, ip; assay type: organism-based; conditions: in vivo
Mus musculus [24] = experiment: Anti-inflammatory activity in BALB/c mouse model of LPS-induced ALI assessed as reduction in number of neutrophils BALF at 5 mg/kg dosed via intranasal insuffIation pre-treated 2 hrs before LPS stimulation for 16 hrs; assay type: functional, organism-based; conditions: dose mg/kg 5-10, time 18.0 hrs
Macrophage [25] = experiment: Inhibition of calcineurin-NFATc3 interaction in mouse lung macrophages assessed as reduction in LPS-induced TNFalpha production at 0.1 to 10 uM pre-incubated 4 hrs before LPS stimulation for 8 hrs by ELISA; assay type: tissue-based; conditions: dose microM 0.1-10, time 12.0 hrs
[26] = Drug localization in plasma of C57BL/6 mouse at 5 mg/kg using TMR-labeled compound instilled into both nostrils measured after 24 hrs by flow cytometry; assay type: ADME, organism-based; conditions: in vivo, inhaled_or_intranasal
Mus musculus [27] = experiment: Anti-inflammatory activity in BALB/c mouse model of LPS-induced ALI assessed as reduction in LPS-induced IL6 in BALF at 10 mg/kg dosed via intranasal insuffIation pre-treated 2 hrs before LPS stimulation for 16 hrs; assay type: functional, organism-based; conditions: time 18.0 hrs
[28] = Toxicity in C57BL/6 mouse assessed as induction of body weight loss at 10 mg/kg dosed via intranasal insuffIation measured during 1 weeks; assay type: organism-based; conditions: in vivo, inhaled_or_intranasal, 168 h
NCI-H441 = experiment: Toxicity in human NCI-H441 cells assessed as reduction in cell viability up to 25 uM incubated for 72 hrs by MTT assay; assay type: cell-based; conditions: nci-h441, 72 h
Macrophage [29] = experiment: Inhibition of calcineurin-NFATc3 interaction in mouse lung macrophages assessed as reduction in LPS-induced IL6 production at 0.1 to 10 uM pre-incubated 4 hrs before LPS stimulation for 8 hrs by ELISA; assay type: tissue-based; conditions: dose microM 0.1-10, time 12.0 hrs
Mus musculus [30] = experiment: Anti-inflammatory activity in BALB/c mouse model of LPS-induced ALI assessed as reduction in LPS-induced TNFalpha in BALF at 10 mg/kg dosed via intranasal insuffIation pre-treated 2 hrs before LPS stimulation for 16 hrs; assay type: functional, organism-based; conditions: time 18.0 hrs
Mus musculus [31] = experiment: Anti-inflammatory activity in BALB/c mouse model of LPS-induced ALI assessed as reduction in lung wet-to-dry ratios at 10 mg/kg dosed via intranasal insuffIation pre-treated 2 hrs before LPS stimulation for 16 hrs; assay type: functional, organism-based; conditions: time 18.0 hrs
HeLa = experiment: Toxicity in human HeLa cells assessed as reduction in cell viability up to 25 uM incubated for 72 hrs by MTT assay; assay type: cell-based
Mus musculus [32] = experiment: Anti-inflammatory activity in BALB/c mouse model of LPS-induced ALI assessed as reduction in lung wet-to-dry ratios at 5 mg/kg dosed via intranasal insuffIation pre-treated 2 hrs before LPS stimulation for 16 hrs; assay type: functional, organism-based; conditions: dose mg/kg 5-10, time 18.0 hrs
[33] = Solubility in PBS containing 5% DMSO at pH 7.4 incubated for 1 hr; assay type: physicochemical
[34] = Drug localization in total leukocytes of C57BL/6 mouse assessed as TMR-positive total leukocytes at 5 mg/kg using TMR-labeled compound instilled into both nostrils measured after 24 hrs by flow cytometry; assay type: ADME, organism-based, Leucocyte; conditions: in vivo, inhaled_or_intranasal
Mus musculus [35] = experiment: Anti-inflammatory activity in BALB/c mouse model of LPS-induced ALI assessed as reduction in LPS-induced IL6 in BALF at 5 mg/kg dosed via intranasal insuffIation pre-treated 2 hrs before LPS stimulation for 16 hrs; assay type: functional, organism-based; conditions: dose mg/kg 5-10, time 18.0 hrs
[36] = Drug localization in total leukocytes of C57BL/6 mouse assessed as TMR-positive total leukocytes at 5 mg/kg using TMR-labeled compound instilled into both nostrils measured after 4 hrs by flow cytometry; assay type: ADME, organism-based, Leucocyte; conditions: in vivo, inhaled_or_intranasal

CC[C@H](C)[C@H](NC(=O)[C@@H](NC(=O)c1cccc(Cl)c1Cl)C(C)(C)C)C(=O)N[C@H](C(=O)N[C@H](C(=O)N[C@H](C(=O)N[C@@H](CCC(N)=O)C(=O)N[C@@H](Cc1cnc[nH]1)C(=O)N[C@@H](CC(C)C)C(=O)N[C@@H](CO)C(=O)NCCC(=O)N[C@@H](CCCCNC(=O)CC[C@@H]1NC(=O)[C@@H](CCCNC(=N)N)NC(=O)[C@H](CCCNC(=N)N)NC(=O)[C@@H](CCCNC(=N)N)NC(=O)[C@H](CCCNC(=N)N)NC(=O)[C@H](Cc2ccc3ccccc3c2)NC(=O)[C@@H](Cc2ccccc2)NC1=O)C(N)=O)[C@H](C)O)[C@@H](C)CC)C(C)(C)C
22%: inhibition (Macrophage [29])
630 nM: IC50 [3]
Not Active: Drug uptake [26] | Drug uptake [34]
Non-Toxic: Activity [4] | Activity [5] | Activity [7] | Activity [11] | Activity [13] | Activity [15] | Activity [16] | Activity [17] | Activity [21] | Activity [23] | Activity [28] | Activity (NCI-H441) | Activity (HeLa)
2 h: Tmax [6]
< 10%: metabolised at 24 h, 5 µM [1]
17%: inhibition (Macrophage [25])
75 nM: Kd [20]
inactive: Activity (Mus musculus [8]) | Activity (Mus musculus [9]) | Activity (Mus musculus [14]) | Activity (Mus musculus [19]) | Activity (Mus musculus [24]) | Activity (Mus musculus [32]) | Activity (Mus musculus [35])
≥ 100 µM: solubility kinetic at 1 h [33]
Active: Drug uptake [2]
80%: Drug uptake [36]
active: inhibition (Homo sapiens) Dose-dependent effect | inhibition (Macrophage [10]) | Activity (Mus musculus [12]) | Activity (Mus musculus [18]) | Activity (Mus musculus [22]) | inhibition (Macrophage [25]; DISRUPTING AGENT) Dose-dependent effect | Activity (Mus musculus [27]) | inhibition (Macrophage [29]; DISRUPTING AGENT) Dose-dependent effect | Activity (Mus musculus [30]) | Activity (Mus musculus [31])
